Laboratory results: patent US7622441B2, “Sustained release pharmaceutical compounds to prevent abuse of controlled substances” (Shire LLC, priority 2002, dated 2009)
Several values for one entry are separate records, joined by “and”; a condition that tells them apart may be missing. Equal entries are not always repeated. Structures can show the parent of a compound that is named as a salt. Where two headings read alike, the source gives them in different places.

What was measured:
[1] = Pharmacokinetics of peptide-amphetamine conjugates by oral administration (serum amphetamine by ELISA); conditions: rat
[2] = Pharmacokinetics of narcotic conjugates by oral administration (serum hydrocodone/oxycodone by ELISA); conditions: for Shape of the Curve: rat serum concentration curve vs. parent drug; for Peak Time / % AUC / % Cmax: rat serum; for Peak Time: multiple of parent drug's peak time; for % AUC / % Cmax: vs. equivalent dose of parent drug
[3] = intranasal; for Comments (curve) / Peak Time / % AUC / % Cmax: serum, buffer PBS; for Peak Time: multiple of hydrocodone's peak time; for % AUC / % Cmax: vs. hydrocodone
male Sprague-Dawley rats = experiment: Analgesia by paw lick latency (PLL), hot plate nociceptive model, subcutaneous injection; format: in vivo; parameters: Paw Lick Latency: unit not given beside the values; conditions: for PLL: rat hot plate, cutoff time of 45 seconds; for Percent: PLL above basal level compared to HC; for Delta: basal PLL of untreated rats subtracted
in vivo = conditions: Sprague-Dawley, rat, po, 3.6 mg, Serum Concentrations of Individual Rats, oral capsule, dose equal to 3.6 mg naltrexone
[4] = rat, oral capsule; 2 hours was the first measurement
[5] = Serum naltrexone levels of rats orally dosed with BB301 polyserine-naltrexone conjugate vs. naltrexone (ELISA); conditions: rat; for Serum Concentrations of Individual Rats: equal dose (3.6 mg naltrexone)
[6] = Stability of narcotic conjugates in water (narcotic release, abuse resistance tests); format: physicochemical; conditions: numbers based upon narcotic release
Excerpt: It is also possible to further stabilize any unstable conjugates by tethering to a larger peptide. […] The conjugates are also stable at a wide range of pH's.

[7] = male, Sprague-Dawley, in vivo, po
[8] = Sprague-Dawley, in vivo, po, 1.8 mg, Mean Serum Concentrations +/− SD, oral capsule, ½ dose (1.8 mg) at 0 hours and at […]
[9] = Sprague-Dawley, in vivo, po, 3.6 mg
[10] = Sprague-Dawley, in vivo, po, 3.6 mg, Mean Serum Concentrations +/− SD, oral capsule, equal dose at time zero
[11] = oral solution in water, equivalent amount of amphetamine

`C[C@H](N)Cc1ccccc1` [Amphetamine, d-amphetamine sulfate, reference compound] gave an AUC(0-t) [1, 7] of 530 ng·h/mL and a Cmax [1, 7] of 193 ng/mL.

For `COc1ccc2c3c1OC1C(OC(=O)C4CCCN4C(=O)C(C)NC(=O)OC(C)(C)C)=CCC4C(C2)N(C)CCC314` (stereo not drawn) [Boc-Ala-Pro-HC, Boc-Ala-Pro-Hydrocodone], the “Shape of the Curve” value [2] was “++Clearance”, the “Peak Time” value [2] was 1X and the “% AUC” value [2] was 60%. The “% Cmax” value [2] was 97%.

For `COc1ccc2c3c1O[C@H]1C(=O)CC[C@H]4[C@@H](C2)N(C)CC[C@]314` [Hydrocodone], the “Comments (curve)” value [3] was “Rapid”, the “Peak Time” value [3] was 1X and the “% AUC” value [3] was 100%. The “% Cmax” value [3] was 100%, the PLL (male Sprague-Dawley rats; 30 minutes, subcutaneous) was 40 and the Percent (male Sprague-Dawley rats; 30 minutes) was 100%. The Delta (male Sprague-Dawley rats; 30 minutes) was 34, the PLL (male Sprague-Dawley rats; 45 minutes, subcutaneous) was 26.7 and the Percent (male Sprague-Dawley rats; 45 minutes) was 100%. For the same compound, the Delta (male Sprague-Dawley rats; 45 minutes) was 19.9, the “Paw Lick Latency” value (male Sprague-Dawley rats; Table 11, 15 min., subcutaneous) was 25.5 and the “Paw Lick Latency” value (male Sprague-Dawley rats; Table 11, 30 min, subcutaneous) was 42.4. For the same compound, the “Paw Lick Latency” value (male Sprague-Dawley rats; Table 11, 45 min., subcutaneous) was 36.3, the “Paw Lick Latency” value (male Sprague-Dawley rats; Table 11, 60 min., subcutaneous) was 26.6 and the “Paw Lick Latency” value (male Sprague-Dawley rats; Table 11, Basal (0 h), before treatment) was 5.5. The “Paw Lick Latency” value (male Sprague-Dawley rats; Table 12, 60, equivalent dose) was 15.1, the “Paw Lick Latency” value (male Sprague-Dawley rats; Table 12, 15 min., equivalent dose) was 31.9 and the “Paw Lick Latency” value (male Sprague-Dawley rats; Table 12, 30 min, equivalent dose) was 24.5. The “Paw Lick Latency” value (male Sprague-Dawley rats; Table 12, Basal (0 h), before treatment) was 5.6.

For `O=C1CC[C@@]2(O)[C@H]3Cc4ccc(O)c5c4[C@@]2(CCN3CC2CC2)[C@H]1O5` [Naltrexone], the concentration at 12 h (in vivo) was 1 ng/mL, the “time at which serum levels spiked” value [4] was 2 h and the concentration at 0.5 h [5, 8] was 72 ng/mL. The concentration at 3 h [5, 8] was 13 ng/mL, the concentration at 5 h [5, 8] was 4 ng/mL and the concentration at 8 h [5, 8] was 68 ng/mL. It also gave a concentration at 11.5 h ([5]; Sprague-Dawley, in vivo, po, 1.8 mg, Mean Serum Concentrations +/− SD, oral capsule, ½ dose (1.8 mg) at 0 hours and at […], 11.5 hours) of 11 ng/mL, a concentration at 24 h ([5]; Sprague-Dawley, in vivo, po, 1.8 mg, Mean Serum Concentrations +/− SD, oral capsule, ½ dose (1.8 mg) at 0 hours and at […], 24 hours) of 6 ng/mL and an AUC(0-t) [5, 9] of 477 ng·h/mL. It also gave a Cmax [5, 9] of 124 ng/mL, a Tmax [5, 9] of 45 min and a concentration at 0.5 h [5, 10] of 115 ng/mL. The concentration at 3 h [5, 10] was 55 ng/mL, the concentration at 5 h [5, 10] was 56 ng/mL and the concentration at 8 h [5, 10] was 7 ng/mL. For the same compound, the concentration at 12 h ([5]; Sprague-Dawley, in vivo, po, 3.6 mg, Mean Serum Concentrations +/− SD, oral capsule, equal dose at time zero, 12 hours) was 2 ng/mL, the concentration at 15 h ([5]; Sprague-Dawley, in vivo, po, 3.6 mg, Mean Serum Concentrations +/− SD, oral capsule, equal dose at time zero, 15 hours) was 2 ng/mL and the concentration at 24 h ([5]; Sprague-Dawley, in vivo, po, 3.6 mg, Mean Serum Concentrations +/− SD, oral capsule, equal dose at time zero, 24 hours) was 2 ng/mL. The “time at which naltrexone serum levels spiked” value ([5]; oral capsule, equal dose) was 0.5 h, the “Serum Concentrations of Individual Rats” value ([5]; oral capsule, 12 hours) was 2 ng/mL and the “Serum Concentrations of Individual Rats” value ([5]; oral capsule, 15 hours) was 1 ng/mL and 2 ng/mL. For the same compound, the “Serum Concentrations of Individual Rats” value ([5]; oral capsule, 24 hours) was 1 ng/ml (2×) and 3 ng/ml and 2 ng/ml.

With `CC(Cc1ccccc1)NC(=O)[C@@H](N)Cc1ccccc1` (stereo partly shown) [Phe-Amp] the “Cmax and AUC compared with those of the parent drug” value ([1]; oral) was “nearly equal”, the AUC 0-12 h [1, 11] was 505 ng·h/mL and the Cmax [1, 11] was 175 +/− 77.

With `COc1ccc2c3c1OC1C(OC(=O)OC[C@H]4OC(O)C(O)[C@H]4O)=CCC4[C@@H](C2)N(C)CC[C@]314.Cl` (stereo partly shown) [Ribose-HC] the “H2O (24 h, RT)” value [6] was 4, the “Comments (curve)” value [3] was “No change” and the “Peak Time” value [3] was 1X. The “% AUC” value [3] was 20%, the “% Cmax” value [3] was 34% and the “inhibition of IN absorption” value ([3]; compound still contained small amounts of free hydrocodone) was “approximately 80%”. For the same compound, the “Shape of the Curve” value [2] was “No change”, the “Peak Time” value [2] was 1X and the “% AUC” value [2] was 106%. The “% Cmax” value [2] was 132%.

In the case of `CC(Cc1ccccc1)NC(=O)C(N)CO` (stereo not shown) [Ser-Amp], the AUC 0-12 h [1, 11] is reported as 290 ng·h/mL, the Cmax [1, 11] is reported as 146 +/− 85 and the “Percent Amphetamine (AUC 0-12 h)” value ([1]; oral, AUC relative to amphetamine) is reported as 55%. The “Percent Amphetamine (Cmax)” value ([1]; oral, Cmax relative to amphetamine) was 76%.
